Patent US20190327974A1, “SYNERGISTS FOR IMPROVED PESTICIDES” (priority 2017, published 2019)

Tests used:
[1] = tested on: Lucilia cuprina larvae, laboratory susceptible strain (LS); assay: Blowfly larvae pupation bioassay, laboratory strain, diazinon; assay type: in vivo
Protocol: Inhibitor efficacy was determined by treating larvae with diazinon over a range of concentrations, in the presence or absence of the compounds at constant concentrations, and comparing pupation rates.
(§1) Two strains of L. cuprina were used: 1) a laboratory reference drug-susceptible strain, LS, derived from collections in the Australian Capital Territory over 40 years ago, with no history of exposure to insecticides; and 2) a field-collected strain, Tara, resistant to diazinon and diflubenzuron (Levot, G. W. & Sales, N. New high level resistance to diflubenzuron detected in the Australian sheep blowfly, Lucilia cuprina (Wiedemann) (Diptera: Calliphoridae). Gen. Appl. Entomol. 31, 43-46 (2002)). The LcαE7 gene was sequenced in each of the strains. Briefly, genomic DNA was prepared from 20 adult female flies from each strain using the DNeasy Blood and Tissue kit (Qiagen). PCR was performed with primers specific to the LcαE7 gene, and the product was cloned into a pGEM-T EASY vector (Promega). Eight clones of the susceptible strain and 10 clones of the resistant strain were sequenced using M13 forward and reverse primers.
Each experiment utilized 50 larvae at each diazinon/malathion concentration. Experiments were replicated three times for diazinon, and twice for malathion. The insecticidal effects were defined by measuring the pupation rate. […]

[2] = tested on: Lucilia cuprina larvae, field strain Tara resistant to diazinon; assay: Lucilia cuprina larval bioassay (pupation rate), field strain; assay type: in vivo
From the text: Diazinon resistance is typically associated with the Gly137Asp mutation/resistance allele. […] This is consistent with previous results showing that duplications of the chromosomal region containing αE7 have occurred, meaning that resistant strains now carry copies of both WT and Glyl37Asp LcαE7.
as §1
The effect of compounds 2, 3, 5, 3.9 and 3.10 on the development of blowfly larvae in the presence of diazinon/malathion was assessed using a bioassay system in which larvae were allowed to develop from the first instar stage until pupation on cotton wool impregnated with diazinon/malathion over a range of concentrations, in the presence or absence of the compounds at constant concentrations (Kotze, A. C. et al. Histone deacetylase enzymes as drug targets for the control of the sheep blowfly, Lucilia cuprina. Int. J. Parasitol. Drugs Drug Resist. 5, 201-208 (2015)). Each experiment utilized 50 larvae at each diazinon/malathion concentration. Experiments were replicated three times for diazinon, and twice for malathion. The insecticidal effects were defined by measuring the pupation rate. […] Compounds were also without diazinon or malathion at 1 mg per assay.

SMILES	reduction of diazinon EC50 compared to diazinon only control [1]	reduction of diazinon EC50 compared to a diazinon only control ([2]; field strain)	sensitivity of field strain to diazinon compared to the laboratory strain treated with only diazinon ([2]; fold more sensitive)
OB(O)c1cc(Br)cc(N2CCOCC2)c1 [Compound 3.1]	5.7 fold	–	–
OB(O)c1cc(Br)cc(Oc2ccccc2)c1 [Compound 3.10, 3-Bromo-5-phenoxyfenylboronic acid]	–	12 fold	4 fold
